Values after ≈ are worked out from the molar mass of the structure shown.
What was measured:
Phaseolus lunatus [1] = test: Phytotoxicity in Phaseolus lunatus (lima bean) root assessed as root dry weight at 2.24 kg ai/ha applied to soil measured up to 7 days under green house conditions (reference value: 0.36 +/- 0.071 g); format: organism-based; conditions: in vivo, other, 168 h
Phaseolus lunatus [2] = test: Phytotoxicity in Phaseolus lunatus (lima bean) root assessed as root dry weight at 1.12 kg ai/ha applied to soil measured up to 7 days under green house conditions (reference value: 0.36 +/- 0.071 g); format: organism-based; conditions: in vivo, other, 168 h
Phaseolus lunatus [3] = test: Phytotoxicity in Phaseolus lunatus (lima bean) plant assessed as plant dry weight at 2.24 kg ai/ha applied to soil measured up to 7 days under green house conditions (reference value: 1.20 +/- 0.21 g); format: organism-based; conditions: in vivo, other, 168 h
Meloidogyne incognita [4] = test: Nematicidal activity against second juvenile stage of Meloidogyne incognita (root-knot nematode) infected lima bean plant assessed as reduction in root gall index at 1.12 kg ai/ha applied to soil measured during planting under green house conditions (reference value: 7 +/- 0.27%); format: functional
Meloidogyne incognita [5] = test: Nematicidal activity against second juvenile stage of Meloidogyne incognita (root-knot nematode) infected lima bean plant assessed as reduction in root gall index at 0.56 kg ai/ha applied to soil measured during planting under green house conditions (reference value: 7 +/- 0.27%); format: functional
Meloidogyne incognita [6] = test: Nematicidal activity against second juvenile stage of Meloidogyne incognita (root-knot nematode) infected lima bean plant assessed as shoot dry weight at 1.12 kg ai/ha applied to soil measured during planting under green house conditions (reference value: 1.84 +/- 0.18 g); format: functional
Meloidogyne incognita [7] = test: Nematicidal activity against second juvenile stage of Meloidogyne incognita (root-knot nematode) infected lima bean plant assessed as shoot dry weight at 0.56 kg ai/ha applied to soil measured during planting under green house conditions (reference value: 1.84 +/- 0.18 g); format: functional
Meloidogyne incognita [8] = test: Nematicidal activity against second juvenile stage of Meloidogyne incognita (root-knot nematode) infected pea plant assessed as plant fresh weight at 1.68 kg ai/ha applied to soil measured up to 7 days post planting under green house conditions (reference value: 4.3 +/- 0.56 g); format: functional
Meloidogyne incognita [9] = test: Nematicidal activity against second juvenile stage of Meloidogyne incognita (root-knot nematode) infected pea plant assessed as plant fresh weight at 1.12 kg ai/ha applied to soil measured up to 7 days post planting under green house conditions (reference value: 4.3 +/- 0.56 g); format: functional
Meloidogyne incognita [10] = test: Nematicidal activity against second juvenile stage of Meloidogyne incognita (root-knot nematode) infected pea plant assessed as plant fresh weight at 0.56 kg ai/ha applied to soil under green house conditions (reference value: 4.3 +/- 0.56 g); format: functional
Meloidogyne incognita [11] = test: Nematicidal activity against second juvenile stage of Meloidogyne incognita (root-knot nematode) infected pea plant assessed as reduction in root gall index at 1.68 kg ai/ha applied to soil measured up to 14 days post planting under green house conditions (reference value: 9.7 +/- 0.30%); format: functional
Meloidogyne incognita [12] = test: Nematicidal activity against second juvenile stage of Meloidogyne incognita (root-knot nematode) infected pea plant assessed as reduction in root gall index at 1.12 kg ai/ha applied to soil measured up to 7 days post planting under green house conditions (reference value: 9.7 +/- 0.30%); format: functional
Meloidogyne incognita [13] = test: Nematicidal activity against second juvenile stage of Meloidogyne incognita (root-knot nematode) infected pea plant assessed as reduction in root gall index at 0.56 kg ai/ha applied to soil under green house conditions (reference value: 9.7 +/- 0.30%); format: functional
Meloidogyne incognita [14] = test: Nematicidal activity against second juvenile stage of Meloidogyne incognita (root-knot nematode) infected pea plant assessed as root dry weight at 1.12 kg ai/ha applied to soil measured up to 7 days post planting under green house conditions (reference value: 0.25 +/- 0.041 g); format: functional
Meloidogyne incognita [15] = test: Nematicidal activity against second juvenile stage of Meloidogyne incognita (root-knot nematode) infected pea plant assessed as root dry weight at 0.56 kg ai/ha applied to soil under green house conditions (reference value: 0.25 +/- 0.041 g); format: functional
Meloidogyne incognita [16] = test: Nematicidal activity against second juvenile stage of Meloidogyne incognita (root-knot nematode) infected pea plant assessed as root fresh weight at 1.68 kg ai/ha applied to soil measured up to 14 days post planting under green house conditions (reference value: 1.83 +/- 0.3 g); format: functional
Meloidogyne incognita [17] = test: Nematicidal activity against second juvenile stage of Meloidogyne incognita (root-knot nematode) infected pea plant assessed as root fresh weight at 1.12 kg ai/ha applied to soil measured up to 7 days post planting under green house conditions (reference value: 1.83 +/- 0.3 g); format: functional
Meloidogyne incognita [18] = test: Nematicidal activity against second juvenile stage of Meloidogyne incognita (root-knot nematode) infected pea plant assessed as emergence at 0.56 kg ai/ha applied to soil under green house conditions (reference value: 75 +/- 13%); format: functional
Meloidogyne incognita [19] = test: Nematicidal activity against second juvenile stage of Meloidogyne incognita (root-knot nematode) infested soil containing cucumber seeds assessed as mortality applied post seed germination measured after 7 days under green house conditions; format: functional
Meloidogyne incognita [20] = test: Nematicidal activity against second juvenile stage of Meloidogyne incognita (root-knot nematode) assessed as mortality after 72 hr; format: functional
Meloidogyne incognita [21] = test: Nematicidal activity against second juvenile stage of Meloidogyne incognita (root-knot nematode) assessed as mortality after 48 hr; format: functional
Meloidogyne incognita [22] = test: Nematicidal activity against second juvenile stage of Meloidogyne incognita (root-knot nematode) infected pea plant assessed as emergence at 1.68 kg ai/ha applied to soil measured up to 14 days under green house conditions (reference value: 75 +/- 13%); format: functional
Meloidogyne incognita [23] = test: Nematicidal activity against second juvenile stage of Meloidogyne incognita (root-knot nematode) infected pea plant assessed as emergence at 1.12 kg ai/ha applied to soil measured up to 7 days under green house conditions (reference value: 75 +/- 13%); format: functional
Meloidogyne incognita [24] = test: Nematicidal activity against second juvenile stage of Meloidogyne incognita (root-knot nematode) infected pea plant assessed as root fresh weight at 0.56 kg ai/ha applied to soil under green house conditions (reference value: 1.83 +/- 0.3 g); format: functional
Phaseolus lunatus [25] = test: Phytotoxicity in Phaseolus lunatus (lima bean) plant assessed as plant dry weight at 1.12 kg ai/ha applied to soil measured up to 7 days under green house conditions (reference value: 1.20 +/- 0.21 g); format: organism-based; conditions: in vivo, other, 168 h
Phaseolus lunatus [26] = test: Phytotoxicity in Phaseolus lunatus (lima bean) plant assessed as emergence at 2.24 kg ai/ha applied to soil measured up to 7 days under green house conditions (reference value: 70 +/- 16%); format: organism-based; conditions: in vivo, other, 168 h
Phaseolus lunatus [27] = test: Phytotoxicity in Phaseolus lunatus (lima bean) plant assessed as emergence at 1.12 kg ai/ha applied to soil measured up to 7 days under green house conditions (reference value: 70 +/- 16%); format: organism-based; conditions: in vivo, other, 168 h
Meloidogyne incognita [28] = test: Nematicidal activity against second juvenile stage of Meloidogyne incognita (root-knot nematode) infected lima bean plant assessed as root dry weight at 1.12 kg ai/ha applied to soil measured during planting under green house conditions (reference value: 0.5 +/- 0.052 g); format: functional
Meloidogyne incognita [29] = test: Nematicidal activity against second juvenile stage of Meloidogyne incognita (root-knot nematode) infected lima bean plant assessed as root dry weight at 0.56 kg ai/ha applied to soil measured during planting under green house conditions (reference value: 0.5 +/- 0.052 g); format: functional
Meloidogyne incognita [30] = test: Nematicidal activity against second juvenile stage of Meloidogyne incognita (root-knot nematode) infected lima bean plant assessed as emergence at 1.12 kg ai/ha applied to soil measured during planting under green house conditions (reference value: 83 +/- 5%); format: functional
Meloidogyne incognita [31] = test: Nematicidal activity against second juvenile stage of Meloidogyne incognita (root-knot nematode) infected lima bean plant assessed as emergence at 0.56 kg ai/ha applied to soil measured during planting under green house conditions (reference value: 83 +/- 5%); format: functional
Meloidogyne incognita [32] = test: Nematicidal activity against second juvenile stage of Meloidogyne incognita (root-knot nematode) infected pea plant assessed as root dry weight at 1.68 kg ai/ha applied to soil measured up to 14 days post planting under green house conditions (reference value: 0.25 +/- 0.041 g); format: functional

## CNC(=O)O/N=C(\SC)C(=O)N(C)C [OXAMYL]
Phaseolus lunatus [1]
  Activity: 0.6 g
Phaseolus lunatus [2]
  Activity: 0.35 g
Phaseolus lunatus [3]
  Activity: 1.79 g
Meloidogyne incognita [4]
  Root_galling_index: 0%
Meloidogyne incognita [5]
  Root_galling_index: 0%
Meloidogyne incognita [6]
  Activity: 1.49 g
Meloidogyne incognita [7]
  Activity: 1.09 g
Meloidogyne incognita [8]
  Activity: 7.1 g
Meloidogyne incognita [9]
  Activity: 6 g
Meloidogyne incognita [10]
  Activity: 4.4 g
Meloidogyne incognita [11]
  Root_galling_index: 0%
Meloidogyne incognita [12]
  Root_galling_index: 0%
Meloidogyne incognita [13]
  Root_galling_index: 0%
Meloidogyne incognita [14]
  Activity: 0.31 g
Meloidogyne incognita [15]
  Activity: 0.17 g
Meloidogyne incognita [16]
  Activity: 1.76 g
Meloidogyne incognita [17]
  Activity: 1.61 g
Meloidogyne incognita [18]
  Activity: 63%
Meloidogyne incognita [19]
  LC90: 12 µg/mL (≈ 54.7 µM)
Meloidogyne incognita [19]; Meloidogyne incognita, Juvenile stage, 168 h
  LC50: 2.8 µg/mL (≈ 12.8 µM)
Meloidogyne incognita [20]
  LC90: 2.5 µg/mL (≈ 11.4 µM)
Meloidogyne incognita [20]; Meloidogyne incognita, Juvenile stage, 72 h
  LC50: 1.7 µg/mL (≈ 7.75 µM)
Meloidogyne incognita [21]
  LC90: 11.5 µg/mL (≈ 52.4 µM)
Meloidogyne incognita [21]; Meloidogyne incognita, Juvenile stage, 48 h
  LC50: 4 µg/mL (≈ 18.2 µM)
Meloidogyne incognita [22]
  Activity: 75%
Meloidogyne incognita [23]
  Activity: 63%
Meloidogyne incognita [24]
  Activity: 1.36 g
Phaseolus lunatus [25]
  Activity: 1.48 g
Phaseolus lunatus [26]
  Activity: 70%
Phaseolus lunatus [27]
  Activity: 80%
Meloidogyne incognita [28]
  Activity: 0.41 g
Meloidogyne incognita [29]
  Activity: 0.31 g
Meloidogyne incognita [30]
  Activity: 100%
Meloidogyne incognita [31]
  Activity: 83%
Meloidogyne incognita [32]
  Activity: 0.29 g

From ChEMBL document CHEMBL3045068, “Effect of methomyl and oxamyl soil applications on early control of nematodes and insects” (Pest Manag Sci, 2011)
